Like-named read-outs stand apart in the source and are kept apart here.
Columns and labels:
Format in all cases: cell-based
[1] = test system: T-Rex 293 cells having increased expression of estrogen receptor alpha protein; assay: Cellular growth inhibition assay, T-Rex 293 cells, (+) doxycycline; conditions: Table 7-A, T-Rex 293 cells with doxycycline (increased ERα expression), 72 hours, CellTiter-Glo, read-out: (+) Dox GI50
How it was run: (§1)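 ERα overexpression was switched on by 3 ng/mL doxycycline in a stably transfected T-Rex 293 clone, while uninduced cells served as the comparison line. Proliferation over 72 h of compound treatment was assessed by ATP luminescence, and GI50 values came from four-parameter curves.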

[2] = test system: T-Rex 293 cells lacking increased expression of estrogen receptor alpha protein; assay: Cellular growth inhibition assay, T-Rex 293 cells, (−) doxycycline; conditions: Table 7-A, T-Rex 293 cells without doxycycline (lacking increased ERα expression), 72 hours, CellTiter-Glo, read-out: (−) Dox GI50
How it was run: as §1

[3] = test system: MCF7 cells (ATCC #HTB-22); assay: Cellular growth inhibition assay, MCF7 cells purchased from ATCC; conditions: Table 8-A, MCF7 cells purchased from ATCC, six days, CellTiter-Glo, read-out: GI50
How it was run: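 MCF7 cells in RPMI 1640 with 10% FBS and 0.2 U/ml insulin, seeded at 1,500 cells/well (ATCC) or 225 cells/well (ECACC). Compounds added 24 h later, then 6 days at 37° C. Viability by CellTiter-Glo 2.0 luminescence. GI50 from four-parameter fit.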

SMILES | GI50 ([1]; T-REx-293, 72 h) | GI50 ([2]; T-REx-293, 72 h) | GI50 ([3]; Homo sapiens, MCF7, 144 h) | GI50 [1] | GI50 [2] | GI50 [3]
Cc1sc2c(c1C)C(c1ccc(CC3CC4(CCN(c5ccc([C@@H]6c7ccc(O)cc7CC[C@@H]6c6ccccc6)cc5)CC4)C3)cc1)=N[C@@H](C)c1nnc(C)n1-2 [III-14] | 50 to 500 nM | 500 to 2500 nM | 500 to 2500 nM |  |  | 
Cc1sc2c(c1C)C(c1ccc(CC3CC4(CCN(c5ccc([C@H]6c7ccc(O)cc7CC[C@H]6c6ccccc6)cc5)CC4)C3)cc1)=N[C@@H](C)c1nnc(C)n1-2 [III-15] | 500 to 2500 nM | 500 to 2500 nM | 500 to 2500 nM |  |  | 
Cc1sc2c(c1C)C(c1ccc(N3CCN(CCOc4ccc([C@@H]5c6ccc(O)cc6CC[C@@H]5c5ccccc5)cc4)CC3)cc1)=N[C@@H](C)c1nnc(C)n1-2 [III-16] | 50 to 500 nM | 50 to 500 nM | 50 to 500 nM |  |  | 
Cc1sc2c(c1C)C(c1ccc(N3CCN(CCOc4ccc([C@H]5c6ccc(O)cc6CC[C@H]5c5ccccc5)cc4)CC3)cc1)=N[C@@H](C)c1nnc(C)n1-2 [III-17] | 500 to 2500 nM | 500 to 2500 nM | 500 to 2500 nM |  |  | 
Cc1sc2c(c1C)C(c1ccc(C#CC3CC4(CCN(c5ccc([C@H]6c7ccc(O)cc7CC[C@H]6c6ccccc6)cc5)CC4)C3)cc1)=N[C@@H](C)c1nnc(C)n1-2 [III-18] | > 2500 nM | > 2500 nM | 500 to 2500 nM |  |  | 
Cc1sc2c(c1C)C(c1ccc(C#CC3CC4(CCN(c5ccc([C@@H]6c7ccc(O)cc7CC[C@@H]6c6ccccc6)cc5)CC4)C3)cc1)=N[C@H](Cc1ncco1)c1nnc(C)n1-2 [III-19] | > 2500 nM | > 2500 nM | > 2500 nM |  |  | 
Cc1sc2c(c1C)C(c1ccc(C#CC3CC4(CCN(c5ccc([C@H]6c7ccc(O)cc7CC[C@H]6c6ccccc6)cc5)CC4)C3)cc1)=N[C@H](Cc1ncco1)c1nnc(C)n1-2 [III-20] | > 2500 nM | > 2500 nM | > 2500 nM |  |  | 
Cc1sc2c(c1C)C(c1ccc(C#CC3CC4(CCN(c5ccc([C@H]6c7ccc(O)cc7CC[C@H]6c6ccccc6)cc5)CC4)C3)cc1)=N[C@@H](Cc1ncco1)c1nnc(C)n1-2 [III-21] | 500 to 2500 nM | > 2500 nM | 500 to 2500 nM |  |  | 
Cc1sc2c(c1C)C(c1ccc(C3CCN(C[C@@H]4[C@H]5CN(c6ccc([C@H]7c8ccc(O)cc8CC[C@H]7c7ccccc7)cc6)C[C@@H]45)CC3)cc1)=N[C@@H](C)c1nnc(C)n1-2 [III-22] | < 50 nM | 500 to 2500 nM | 50 to 500 nM |  |  | 
Cc1sc2c(c1C)C(c1ccc(N3CCN(C[C@@H]4[C@H]5CN(c6ccc([C@@H]7c8ccc(O)cc8CC[C@@H]7c7ccccc7)cc6)C[C@@H]45)CC3)cc1)=N[C@@H](C)c1nnc(C)n1-2 [III-23] | < 50 nM | > 2500 nM | 50 to 500 nM |  |  | 
Cc1sc2c(c1C)C(c1ccc(N3CCC(O)(CN4CCC(c5ccc([C@H]6c7ccc(O)cc7CC[C@H]6c6ccccc6)cc5)CC4)CC3)cc1)=N[C@@H](C)c1nnc(C)n1-2 [III-24] | < 50 nM | 50 to 500 nM | 50 to 500 nM |  |  | 
Cc1sc2c(c1C)C(c1ccc(N3CCC(O)(CN4CCC(c5ccc([C@@H]6c7ccc(O)cc7CC[C@@H]6c6ccccc6)cc5)CC4)CC3)cc1)=N[C@@H](C)c1nnc(C)n1-2 [III-25] | < 50 nM | 500 to 2500 nM | < 50 nM |  |  | 
Cc1sc2c(c1C)C(c1ccc(C3CCN(CC4(O)CCN(c5ccc([C@@H]6c7ccc(O)cc7CC[C@@H]6c6ccccc6)cc5)CC4)CC3)cc1)=N[C@@H](C)c1nnc(C)n1-2 [III-26] | < 50 nM | 50 to 500 nM | 50 to 500 nM |  |  | 
Cc1sc2c(c1C)C(c1ccc(C3CCN(CC4(O)CCN(c5ccc([C@H]6c7ccc(O)cc7CC[C@H]6c6ccccc6)cc5)CC4)CC3)cc1)=N[C@@H](C)c1nnc(C)n1-2 [III-27] | < 50 nM | 50 to 500 nM | 50 to 500 nM |  |  | 
Cc1sc2c(c1C)C(c1ccc(N[C@H]3CCN(CCOc4ccc([C@@H]5c6ccc(O)cc6CC[C@@H]5c5ccccc5)cc4)C3)cc1)=NC(Cc1ncco1)c1nnc(C)n1-2 (stereo partly drawn) [III-28] | 50 to 500 nM | 50 to 500 nM | 50 to 500 nM |  |  | 
Cc1sc2c(c1C)C(c1ccc(NCCN3CCN(CCOc4ccc([C@@H]5c6ccc(O)cc6CC[C@@H]5c5ccccc5)cc4)CC3)cc1)=NC(Cc1ncco1)c1nnc(C)n1-2 (stereo partly drawn) [III-29] | < 50 nM | 50 to 500 nM | 50 to 500 nM |  |  | 
Cc1sc2c(c1C)C(c1ccc(NCC3(F)CCN(CCOc4ccc([C@@H]5c6ccc(O)cc6CC[C@@H]5c5ccccc5)cc4)CC3)cc1)=NC(Cc1ncco1)c1nnc(C)n1-2 (stereo partly drawn) [III-30] | < 50 nM | 50 to 500 nM | 50 to 500 nM |  |  | 
Cc1sc2c(c1C)C(c1ccc(N3C4CCC3CN(CCOc3ccc([C@@H]5c6ccc(O)cc6CC[C@@H]5c5ccccc5)cc3)C4)cc1)=NC(Cc1ncco1)c1nnc(C)n1-2 (stereo partly drawn) [III-31] | > 2500 nM | 50 to 500 nM | 50 to 500 nM |  |  | 
Cc1sc2c(c1C)C(c1ccc(NCCN3CCN(CCOc4ccc([C@@H]5c6ccc(O)cc6CC[C@@H]5c5ccccc5)cc4)CC3)cc1)=NC(Cc1ncco1)c1nnc(C)n1-2 (stereo partly drawn) [III-32] |  |  |  | < 50 nM | 50 to 500 nM | 50 to 500 nM
Cc1sc2c(c1C)C(c1ccc(NCC3CCN(CCOc4ccc([C@@H]5c6ccc(O)cc6CC[C@@H]5c5ccccc5)cc4)CC3)cc1)=NC(Cc1ncco1)c1nnc(C)n1-2 (stereo partly drawn) [III-33] | < 50 nM | 50 to 500 nM | 50 to 500 nM |  |  | 
Cc1sc2c(c1C)C(c1ccc(NC3CCCN(CCOc4ccc([C@@H]5c6ccc(O)cc6CC[C@@H]5c5ccccc5)cc4)CC3)cc1)=NC(Cc1ncco1)c1nnc(C)n1-2 (stereo partly drawn) [III-34] | < 50 nM | 50 to 500 nM | 50 to 500 nM |  |  | 
Cc1sc2c(c1C)C(c1ccc(N3CCC(N4CCN(CCOc5ccc([C@@H]6c7ccc(O)cc7CC[C@@H]6c6ccccc6)cc5)CC4)CC3)cc1)=NC(Cc1ncco1)c1nnc(C)n1-2 (stereo partly drawn) [III-35] | < 50 nM | 50 to 500 nM | < 50 nM |  |  | 
Cc1sc2c(c1C)C(c1ccc(N3CCC4(CCN(CCOc5ccc([C@@H]6c7ccc(O)cc7CC[C@@H]6c6ccccc6)cc5)C4)CC3)cc1)=NC(Cc1ncco1)c1nnc(C)n1-2 (stereo partly drawn) [III-36] | < 50 nM | 50 to 500 nM | < 50 nM |  |  | 
Cc1sc2c(c1C)C(c1ccc(NCCCN3CCN(CCOc4ccc([C@@H]5c6ccc(O)cc6CC[C@@H]5c5ccccc5)cc4)CC3)cc1)=NC(Cc1ncco1)c1nnc(C)n1-2 (stereo partly drawn) [III-37] | < 50 nM | 50 to 500 nM | < 50 nM |  |  | 
Cc1sc2c(c1C)C(c1ccc(N3CCC4(CCN(CCOc5ccc([C@@H]6c7ccc(O)cc7CC[C@@H]6c6ccccc6)cc5)CC4)CC3)cc1)=NC(Cc1ncco1)c1nnc(C)n1-2 (stereo partly drawn) [III-38] | < 50 nM | 50 to 500 nM | < 50 nM |  |  | 
Cc1sc2c(c1C)C(c1ccc(NC[C@@H]3CN(CCOc4ccc([C@@H]5c6ccc(O)cc6CC[C@@H]5c5ccccc5)cc4)CCO3)cc1)=NC(Cc1ncco1)c1nnc(C)n1-2 (stereo partly drawn) [III-39] | < 50 nM | 50 to 500 nM | < 50 nM |  |  | 
Cc1sc2c(c1C)C(c1ccc(N3C[C@H]4C[C@@H]3CN4CCOc3ccc([C@@H]4c5ccc(O)cc5CC[C@@H]4c4ccccc4)cc3)cc1)=NC(Cc1ncco1)c1nnc(C)n1-2 (stereo partly drawn) [III-40] | 50 to 500 nM | 50 to 500 nM | < 50 nM |  |  | 
Cc1sc2c(c1C)C(c1ccc(N3CCCN(CCCNCCOc4ccc([C@@H]5c6ccc(O)cc6CC[C@@H]5c5ccccc5)cc4)CC3)cc1)=NC(Cc1ncco1)c1nnc(C)n1-2 (stereo partly drawn) [III-42] | < 50 nM | 50 to 500 nM | 50 to 500 nM |  |  | 
Cc1sc2c(c1C)C(c1ccc(N[C@H]3CC[C@H](CNCCOc4ccc([C@@H]5c6ccc(O)cc6CC[C@@H]5c5ccccc5)cc4)CC3)cc1)=NC(Cc1ncco1)c1nnc(C)n1-2 (stereo partly drawn) [III-43] | < 50 nM | 50 to 500 nM | 50 to 500 nM |  |  | 
Cc1sc2c(c1C)C(c1ccc(N3CCCC(CN(C)CCOc4ccc([C@@H]5c6ccc(O)cc6CC[C@@H]5c5ccccc5)cc4)C3)cc1)=NC(Cc1ncco1)c1nnc(C)n1-2 (stereo partly drawn) [III-44] | 50 to 500 nM | 500 to 2500 nM | 50 to 500 nM |  |  | 
